# Data as given in the COVID Moonshot data (paper PMC11187573), “Identification of SARS-CoV-2 Mpro inhibitors through deep reinforcement learning for de novo drug design and computational chemistry approaches” (RSC Medicinal Chemistry, 2024).
# Target: SARS-CoV-2 Main Protease (SARS-CoV-2) (UniProt P0DTD1)
SMILES,IC50 [µM],inhibition (20.0 µM) [%],inhibition (50.0 µM) [%]
O=C1CC(C(=O)Nc2cncc3ccccc23)c2cc(Cl)cc(Cl)c2N1 (stereo not given),3.04,–,–
O=C1CCCCC(C(=O)Nc2ccc(-c3nc[nH]n3)cc2F)N1 (stereo not given),–,-4.07,-3.07
O=C(Nc1cnn2ccc(N3CCC[C@@H]3c3cc(F)ccc3F)nc12)N1CC[C@H](O)C1 (stereo in doubt),–,-17.2,-4.24
COc1cc(Cl)nc(Nc2cc(Cl)cc(CC(=O)Nc3cncc4ccccc34)c2)n1,0.504,–,–
CCc1ccccc1N(CC)C(=O)Nc1cn(C)c(=O)c2ccccc12,–,-3.06,22.3
Cn1cc(NC(=O)N2CCN(C(=O)c3ccco3)CC2)c2ccccc2c1=O,–,-4.83,-2.88
O=C(Nc1cncc2ccccc12)[C@H]1COc2ccc(Cl)cc21 (stereo in doubt),26.9,–,–
CC(C)Oc1ccc(N(C(=O)c2cnc[nH]2)C(C(=O)NCCc2cccc(F)c2)c2cccnc2)cc1 (stereo not given),0.712,–,–
O=C(N[C@@H](Cc1cc(=O)[nH]c2ccccc12)C(=O)O)c1ccc(Cl)cc1 (stereo in doubt),–,1.24,-22.3
CC(NC(=O)Cc1ccc(-n2cnnn2)cc1)(C(=O)Nc1cncc2ccccc12)c1ccc(Cl)c(Cl)c1 (stereo not given),4.64,–,–
Cc1noc(C)c1CCNC(=O)Nc1cn(CC(C)C)c(=O)c2ccccc12,–,39,94.5
CN(C)C(=O)c1cc2cnc(Nc3ccc(N4CCNCC4)cn3)nc2n1C1CCCC1,–,-3.84,-4.06
COc1ccccc1OCCNC(=O)c1cc(=O)[nH]c2cccc(OC)c12,–,84.4,90.9
COc1ccc(NC(=O)Nc2cn(C)c(=O)c3ccccc23)c(OC)c1,–,7.06,17.9
CC(NC(=O)COc1ccc(C(N)=O)cc1)(C(=O)Nc1cncc2ccccc12)c1ccc(Cl)c(Cl)c1 (stereo not given),12.3,–,–
Cn1cc(NC(=O)NCc2ccccn2)c2ccccc2c1=O,–,-2.84,-6.9
Cc1nc2n(n1)CC(C(=O)NC(C)(C(=O)Nc1cncc3ccccc13)c1ccc(Cl)c(Cl)c1)CC2 (stereo not given),4.82,–,–
Cc1cc(Cn2nnc3c(-c4ccco4)nc(N)nc32)ccc1N,–,1.89,-1.33
COC[C@]1(C(=O)Nc2cncc3ccccc23)CCOc2cc(Cl)c(Cl)cc21 (stereo in doubt),3.22,–,–
COC(=O)c1c(C)nn(-c2ccccc2)c1-c1cc(C)on1,–,18.8,3.16
CC(C)Cn1cc(NC(=O)N2CCCN(Cc3ccccc3F)C2)c2ccccc2c1=O,–,-1.37,-3.78
COc1cc(Cl)c(C)cc1NC(=O)Nc1cn(C)c(=O)c2ccccc12,–,23.7,5.81

SMILES,IC50 [µM],inhibition (20.0 µM) [%],inhibition (50.0 µM) [%]
CCN(CC)S(=O)(=O)c1ccc(NC(=O)Nc2cn(C)c(=O)c3ccccc23)cc1,–,0.771,-1.21
O=C1C(Nc2ncnc3[nH]cnc23)CCN1Cc1ccccc1 (stereo not given),–,-6.26,-5.36
O=C(Cn1ccnc1[N+](=O)[O-])NCc1ccccc1,–,-7.12,4.09
Cn1ccc(CN(C(=O)Cc2cccnc2)c2ccc(-c3ccccn3)cc2)n1,–,6.62,16.1
COc1ccc(OC)c(CCNC(=O)Nc2cn(CC(C)C)c(=O)c3ccccc23)c1,–,1.12,2.5
CCN(Cc1ccc(F)cc1)c1cc(Cl)cc(CC(=O)Nc2cncc3ccccc23)c1,1.41,–,–
NCc1cn(CC(=O)N(Cc2ccsc2)c2ccc(N3CCOCC3)cc2)nn1,–,-4.16,-1.29
C=CC(=O)N(c1ccc(CCC#N)cc1)C(C(=O)NC(C)(C)C)c1cccnc1 (stereo not given),–,1.48,3.3
Cc1cccnc1NC(=O)Nc1cn(CC(C)C)c(=O)c2ccccc12,–,-0.204,-1.16
CC(CCc1ccco1)NC(=O)Nc1cn(C)c(=O)c2ccccc12 (stereo not given),–,32.6,67.9
O=C(CC1(C(=O)Nc2cncc3ccccc23)CCOc2ccc(Cl)cc21)N1CCOCC1CC(F)F (stereo not given),9.84,–,–
COC(=O)C(c1ccccc1Cl)N1CCC(S)/C(=C/C(=O)O)C1 (stereo not given),–,-2.05,1.77
O=C(COc1ccccc1F)Nc1ncnc2[nH]cnc12,–,-6.54,-3.69
CC(C)Cn1cc(NC(=O)NC2CCCCCC2)c2ccccc2c1=O,–,4.79,2.3
C[C@@H]1COCCN1c1cc(C2([S@](C)(=N)=O)CC2)nc(-c2cncc3[nH]ccc23)n1 (stereo in doubt),–,-0.821,3.82
CC(C)Cn1cc(NC(=O)NCC2CCCO2)c2ccccc2c1=O (stereo not given),–,-0.42,6.75
Cn1nc(C(=O)NC(C)(C(=O)Nc2cncc3ccccc23)c2ccc(Cl)c(Cl)c2)cc1C#N (stereo not given),10.3,–,–
CC(C)Cn1cc(NC(=O)Nc2nc3ccccc3s2)c2ccccc2c1=O,–,3.79,12.2
COc1ccc(N2C(=O)CCS2(=O)=O)cc1S(=O)(=O)Nc1cccc2cccnc12,–,65.3,37.4
CC(C)Cn1cc(NC(=O)N2CCC(c3ccccc3)C2)c2ccccc2c1=O (stereo not given),–,-2.21,0.973
Cn1cc(NC(=O)NCCc2ccsc2)c2ccccc2c1=O,–,14.5,8.36
